Values quoted from earlier work in patent publication US11890293B2, “Synthetic composition for treating metabolic disorders” (GLYCOM A/S, priority 2014, dated 2024).

What was measured:
[1] = system: type 2 diabetes-model mice; details: oral doses

CC(=O)N[C@H]1[C@H](O[C@H]2[C@@H](O)[C@@H](CO)O[C@@H](O[C@H]3[C@H](O)[C@@H](O)C(O)O[C@@H]3CO)[C@@H]2O)O[C@H](CO)[C@@H](O[C@@H]2O[C@H](CO)[C@H](O)[C@H](O)[C@H]2O)[C@@H]1O (mixture of isomers) [LNnT, lacto-N-neotetraose]
insulin secretion [1]: promote insulin secretion

CC(=O)N[C@H]1[C@H]([C@H](O)[C@H](O)CO)O[C@@](O[C@H]2[C@@H](O)[C@@H](CO)O[C@@H](O[C@H]3[C@H](O)[C@@H](O)C(O)O[C@@H]3CO)[C@@H]2O)(C(=O)O)C[C@@H]1O (stereo partly shown) [3′-SL, 3′-sialyllactose]
insulin secretion [1]: promote insulin secretion
fat accumulation in the liver and other organs (high-fat diet rats): reduce/prevent fat accumulation in the liver and other organs
fat accumulation in the liver and other organs (high-fat diet mice): reduce/prevent fat accumulation in the liver and other organs

CC(=O)N[C@H]1[C@H]([C@H](O)[C@H](O)CO)O[C@@](OC[C@H]2O[C@@H](O[C@H]3[C@H](O)[C@@H](O)[C@H](O)O[C@@H]3CO)[C@H](O)[C@@H](O)[C@H]2O)(C(=O)O)C[C@@H]1O [6′-SL, 6′-sialyllactose]
insulin secretion [1]: promote insulin secretion
fat accumulation in the liver and other organs (high-fat diet rats): reduce/prevent fat accumulation in the liver and other organs
fat accumulation in the liver and other organs (high-fat diet mice): reduce/prevent fat accumulation in the liver and other organs
